Measurements from patent US6583147B1, “Pyrazolopyrimidinone derivatives for the treatment of impotence” (Dong A Pharm Co., Ltd., priority 1998, dated 2003).
pIC50: −log10 of the molar value. ≈ marks a conversion by molar mass, not a printed value. Read-outs that look alike come from different tables or passages of the source.

Tests used:
[1] = target: Phosphodiesterase-6 enzyme (PDE 6) (Aquarana catesbeiana, UniProt Z9LGG0MB32+Z9OH76POJ0); assay: Test for phosphodiesterase-6 (PDE 6) activity; assay type: biochemical, bullfrog; settings: PDE 6 fraction from retina of bullfrogs, trypsin-activated
[2] = tested on: men with erectile dysfunction of organic cause; settings: oral administration; cited from earlier work
[3] = tested on: rats; assay: Penile erection test using rats; assay type: in vivo, rat; settings: oral single dose 10 mg/kg in 0.5% methyl cellulose, observed for 2 hours
[4] = Solubility in buffer solution in pH=2&5; assay type: physicochemical; settings: 20 °C, thermodynamic from solid
Procedure: According to that defined in the Korea Pharmacopoeia, citrate-HCl buffer (pH 2) and citrate-NaOH buffer (pH 5) solutions were added to the powdered compounds of formula 1, respectively. After subsequent severe shaking for 30 sec every 5 min in […] for 30 min, the level of compounds in the filtrate was measured by high performance liquid chromatography.

[5] = target: T1, Phosphodiesterase-3 enzyme (PDE 3) (Oryctolagus cuniculus, UniProt G1ST54); assay: Test for phosphodiesterase-3 (PDE 3) activity; assay type: biochemical; settings: PDE 3 fraction from platelets of a rabbit
T1 construct: The supernatant was separated by DEAE-cellulose column chromatography (Whatman DE52 bead); from tissue; host or cells: rabbit platelets
T1 sequence (G1ST54 1-1128): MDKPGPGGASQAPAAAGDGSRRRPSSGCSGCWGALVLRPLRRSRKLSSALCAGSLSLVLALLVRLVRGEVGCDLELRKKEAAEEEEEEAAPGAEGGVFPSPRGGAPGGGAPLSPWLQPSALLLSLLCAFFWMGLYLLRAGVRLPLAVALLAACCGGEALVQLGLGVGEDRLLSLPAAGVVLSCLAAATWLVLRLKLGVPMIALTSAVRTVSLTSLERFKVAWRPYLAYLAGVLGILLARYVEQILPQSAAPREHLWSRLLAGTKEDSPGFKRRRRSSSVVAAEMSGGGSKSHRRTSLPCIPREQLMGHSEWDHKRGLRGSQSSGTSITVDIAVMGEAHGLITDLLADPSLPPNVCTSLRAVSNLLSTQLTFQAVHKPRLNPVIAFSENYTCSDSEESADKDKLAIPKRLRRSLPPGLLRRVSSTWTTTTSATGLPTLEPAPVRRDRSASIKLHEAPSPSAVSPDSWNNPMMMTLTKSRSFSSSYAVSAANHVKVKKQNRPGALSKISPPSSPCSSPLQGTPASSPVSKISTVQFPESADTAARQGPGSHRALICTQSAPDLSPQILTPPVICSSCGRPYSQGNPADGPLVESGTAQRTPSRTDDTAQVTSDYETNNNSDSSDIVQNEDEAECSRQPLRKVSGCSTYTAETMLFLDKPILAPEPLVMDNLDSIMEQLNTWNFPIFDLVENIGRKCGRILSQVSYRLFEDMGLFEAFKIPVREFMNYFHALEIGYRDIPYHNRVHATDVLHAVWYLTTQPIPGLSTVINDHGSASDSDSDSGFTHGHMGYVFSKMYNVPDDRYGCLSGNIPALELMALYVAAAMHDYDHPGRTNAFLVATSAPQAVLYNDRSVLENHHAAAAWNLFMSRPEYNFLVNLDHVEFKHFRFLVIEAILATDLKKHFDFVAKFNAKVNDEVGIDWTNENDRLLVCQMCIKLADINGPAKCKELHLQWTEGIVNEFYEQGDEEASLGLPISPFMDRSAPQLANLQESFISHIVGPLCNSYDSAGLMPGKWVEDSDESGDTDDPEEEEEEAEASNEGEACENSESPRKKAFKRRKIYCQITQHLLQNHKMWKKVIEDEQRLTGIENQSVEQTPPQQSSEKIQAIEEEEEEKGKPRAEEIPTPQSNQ
Method in brief: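 PDE3 taken from rabbit platelets as a DEAE-cellulose fraction, incubated with inhibitor and [3H]-cAMP or [3H]-cGMP (500 nM) for about 1 h at 30° C, pH 7.4. Product converted by snake venom or 5′-nucleotidase, unreacted substrate removed on anion-exchange resin, supernatant radioactivity counted by β-counter.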

For CCCc1nn(C)c2c(=O)[nH]c(-c3cc(S(=O)(=O)N4CCN(C)CC4)ccc3OCC)nc12 [sildenafil, reference compound], the IC50 [1] is listed as 0.0767 ± 0.00153 µg/mL (≈ 0.162 µM), the response rate [2] is listed as “around 80%” and the “genital grooming (number of genital groomings)” value [3] is listed as 3.1 ± 1.2. The solubility at 30 min ([4]; citrate-HCl buffer, pH 2, aqueous buffer, citrate-HCl buffer (pH 2), read-out: solubility pH 2) was 1580 µg/mL (≈ 3340 µM), the solubility at 30 min ([4]; citrate-NaOH buffer, pH 5, aqueous buffer, citrate-NaOH buffer (pH 5), read-out: solubility pH 5) was 480 µg/mL (≈ 1010 µM) and the pIC50 [5] was 4.15.
